These results are taken from patent US6569631B1, “Microplate thermal shift assay for ligand development using 5-(4″dimethylaminophenyl)-2-(4′-phenyl)oxazole derivative fluorescent dyes” (3-Dimensional Pharmaceuticals, Inc., priority 1998, dated 2003).

Like-named read-outs stand apart in the source and are kept apart here. Ends that are not written are not given here.

The target of experiment [1] is T1, chicken muscle pyruvate kinase (Gallus gallus, UniProt P00548).
T1 construct: purchased Sigma Chemical Co. P6406
The experiment can be described thus: Fluorescence signal of reporter dyes on thermal unfolding of pyruvate kinase. The settings on record: wavelengths above 480 nm; excitation 370 nm. The method, then:
A 0.2 mg/mL solution of chicken muscle pyruvate kinase (Sigma Chemical Co., catalog # P6406) was incubated with either 10 mM 1-anilinonaph-thalene-8-sulfonate (1,8-ANS) (FIG. 44, open squares) or 10 mM 5-(4″-dimethylaminophenyl)-2-(4′-phenyl)oxazole sulfonate (Molecular Probes catalogue no. D-12800) (FIG. 44, closed squares) in a 500 μL four-sided quartz cuvette. Fluorescence spectra were recorded using a spectrofluorimeter (Florolog, SPEX/ISA), with the excitation monochromator set to 370 nm, and the excitation and emission bandpass slit widths set at 1 nm, The instrument was operated in front-face collection mode, so that fluorescence was collected from the same face of the cuvette that was illuminated by the exciting light source. Emission spectra of native protein+dye were recorded after mixing the protein and dye solutions at room temperature. Emission spectra of denatured protein and fluorescence dye were recorded after the protein/dye solutions were heated to 75° C. for 2 minutes, and then cooled to room temperature immediately prior to data collection. The spectra shown in FIG. 44 are difference spectra that were calculated by subtracting the native protein fluorescence from the denatured protein fluorescence for each dye at 25° C. […]

Experiment [2] addresses T2, thrombin (Homo sapiens, UniProt P00734). The experiment is described as follows: Fluorescence signal of reporter dyes in 384-well thermal unfolding of thrombin. The following applies: 100 μM dye; 1 μM thrombin; 500+/−25 nm bandpass filter. The arrangement: A stock human α-thrombin solution (1.56 mg/mL) from Enzyme Research Labs; purchased Enzyme Research Labs. How it is done:
A 1 μM thrombin solution was mixed with 5-(4″-dimethylaminophenyl)-2-(4′-phenyl)oxazole sulfonate dye to yield a final concentration of 100 μM 5-(4″-dimethylaminophenyl)-2-(4′-phenyl)oxazole sulfonate. This solution was pipetted into all the wells of a 384-well black thermocycler plate with a final volume of 4 μL per well, and 3 μL of mineral oil was then added to each well. The fluorescence signal from each well was recorded in a closed, black-walld metal box using a cooled CCD camera (SenSys, Photometrix, Inc.) equipped with a 500+/−25 nm bandpass filter. An identical experiment was performed separately, using the same instrument, camera, and filters, except that a final concentration of 100 μM 1,8-ANS was used in place of 5-(4″-dimethylaminophenyl)-2-(4′-phenyl)oxazole sulfonate as the reporter dye.
The ratio of signals from 5-(4″-dimethylaminophenyl)-2-(4′-phenyl)oxazole sulfonate and 1,8-ANS was calculated by averaging the signals of all 384 wells on each plate, and dividing the average signal from 1,8-ANS into that for 5-(4″-dimethylaminophenyl)-2-(4′-phenyl)oxazole sulfonate.

The target in a further experiment is T3, human α-thrombin (Homo sapiens, UniProt P00734).
T3 construct: A stock human α-thrombin solution (1.56 mg/mL) from Enzyme Research Labs; purchased Enzyme Research Labs
The experiment can be described thus: Microplate thermal shift screen of biochemical conditions, thrombin stability. The settings on record: NaCl concentration increased from 0 to 0.5 M. The method, then:
The microplate thermal shift assay was used, with four different fluorophores, to simultaneously screen the effects of multiple pH values, sodium chloride concentrations, and reduction-oxidation compounds on human α-thrombin stability. Thrombin solution was diluted to 1 μM in 50 mM Hepes, pH 7.5, NaCl at either 0.1 M or 0.5 M, 10 mM EDTA, 10 mM CaCl2, 10 mM dithiothreitol, […], and 100 μM 1,8-ANS, 10% (v/v) glycerol, or 0.1% (w/v) polyethylene glycol (PEG) 6000. Reaction volume was 100 μL.
Using equation (1), it is possible to estimate the NaCl binding to be ˜6 mM near the Tm (53° C.) in 50 mM Hepes pH 8.0 buffer (zero and 0.10 M NaCl).

The next experiment relates to D(II) FGF receptor 1. The experiment can be described thus: Microplate thermal shift screen of biochemical conditions, D(II) FGF receptor 1 stability. The settings on record: NaCl concentration increased from 0.1 to 0.5 M. The arrangement: species or system human. How it is done: The microplate thermal shift assay was used to simultaneously screen the effects of multiple biochemical conditions on D(II) FGF receptor 1 stability. The assays were performed by mixing 1 μL of D(II) FGFR1 (from a 500 μM concentrated stock in 50 mM HEPES pH 7.5) with 4 μL of each biochemical condition in wells of a 96-well polycarbonate microtiter plate. Final protein concentration after mixing was 100 μM and final 1,8-ANS concentration was 200 μM. Biochemical conditions were tested as follows: The pH's tested were 5 (Na acetate), 6 (MES), 7 (MOPS), 8 (HEPES), and 9 (CHES), with final buffer concentrations of 50 mM.
The salt concentrations tested were 0.1 or 0.5 M NaCl. Additives were tested in 50 mM MOPS, pH 7, 0.1 M NaCl, at final concentrations of 1 mM (EDTA, dithiothreitol), 10 mM (CaCl2, MgCl2, MgSO4, NiSO4),50 mM (arginine), 100 mM ((NH4)2SO4, LiSO4, Na2SO4, ZnSO4), 5% w/v (polyethylene glycol 6000), and 10% v/v glycerol.
Thermal denaturation profiles were generated as previously described for thrombin, aFGF, Factor D, and Factor Xa, by incremental heating of the microplate followed by a fluorescence reading after each temperature increase. Data were analyzed by non-linear least squares fitting as described previously.

The target of experiment [3] is T2, thrombin. The following applies: 5 mM Tris buffer pH 8.0, 0.1% PEG, 25° C.; read-out: Kd of the Na+ binding site; cited from earlier work.
Experiment [4] addresses T4, heparin binding site of human α-thrombin (Homo sapiens, UniProt P00734).
T4 construct: A stock human α-thrombin solution (1.56 mg/mL) from Enzyme Research Labs; purchased Enzyme Research Labs
The experiment can be described thus: Microplate thermal shift assay, ligands binding to the heparin binding site, turbidity signal. From the text:
Assays for ligands that bind to the heparin binding site of human α-thrombin are more difficult to perform than assays for ligands that bind to the active site of human α-thrombin. At the heparin binding site, no substrate is hydrolyzed, so no spectrophotometric signal can be amplified for instrumental detection. Heparin activity is usually estimated in biological clotting time assays. […] Thus, heparin binding to human α-thrombin represents the kind of challenge encountered with the vast majority of non-enzyme receptor/ligand binding events, which are commonly observed for hormone/receptor interactions, repressor/DNA interactions, neurotransmitter/receptor interactions, etc. Several heparin-like sulfated oligosaccharides and sulfated naphthalene compounds were assayed by the microplate thermal shift assay. Using the thermal shift assay, it was possible to use a single compound per well to quickly rank the compounds in order of increasing binding affinity, with Kd's ranging over three orders of magnitude (see Table 4). Like the experiment in Example 1, the thermal shift assay results agreed closely with the results obtained through an alternative method, which required a series of laborious (15 to 20 single determinations) fluorescence quench assays over a wide range of concentrations of low MW heparin (Olson, S. T. et al., J. Biol. Chem. 266:6342-6352 (1991)).

The target of experiment [5] is T5, acidic fibroblast growth factor (aFGF) (Homo sapiens, UniProt P05230).
T5 construct: host or cells: E. coli
The experiment can be described thus: Microplate thermal shift assay for ligands binding to aFGF, turbidity signal. The settings on record: for ΔTm: relative to aFGF alone (317.15 °K); for Tm: turbidity signal, aFGF 0.25 mg/mL, ligand 47-200 μM. From the text:
The second therapeutic receptor tested in the microplate thermal shift assay was acidic fibroblast growth factor (aFGF), a growth factor that plays a key role in angiogenesis (Folkman, J. et al., J. Biol. Chem. 267:1.0931-10934 (1992)). A synthetic gene for this protein was purchased from R&D Systems (Minneapolis, Minn.), and was cloned and expressed in E. coli using methods similar to those described for basic fibroblast growth factor (bFGF) (Thompson, L. D. et al., Biochemistry 33:3831-3840 (1994); Pantoliano, M. W. et al., Biochemistry 33:10229-10248 (1994); Springer, B. A. et al., J. Biol. Chem. 269:26879-26884 (1994)). Recombinant aFGF was then purified by heparin-sepharose affinity chromatography as described (Thompson, L. D. et al., Biochemistry 33:3831-3840 (1994)). aFGF is also known to bind heparin/heparan, which is a cofactor for mitogenic activity. […] A microplate thermal assay of these compounds was set up in a way similar to that described above for human α-thrombin. […] The affinity constants covered a fairly broad range of binding affinities, with pentosan PSO4 showing the highest affinity.

A further experiment has as its target T6, D(II) FGFR1 (Homo sapiens, UniProt P11362).
T6 construct: made in house
T6 sequence (P11362 158-246 limits assumed): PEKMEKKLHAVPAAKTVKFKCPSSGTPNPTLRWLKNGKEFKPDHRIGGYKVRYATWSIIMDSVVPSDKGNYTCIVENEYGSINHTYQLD
The experiment is described as follows: Miniaturized (10 μL) microplate thermal shift assay of D(II) FGFR1. The experiment is classed as binding. The following applies: aprosulate 300 μM. How it is done: Recombinant D(II) FGFR1 was purified from inclusion bodies and purified by affinity chromatography on heparin sepharose. A stock solution of D(II) FGFR1 (15 mg/mL; 1.1 mM) was diluted to 50 μM in assay buffer (50 mM Hepes, pH 7.5, 0.1 M NaCl). The assay volume was 10 μL and the concentration of 1,8-ANS was 250 μM.

The subject of experiment [6] is human urokinase-type plasminogen activator (u-PA). The experiment can be described thus: Miniaturized microplate thermal shift assay of urokinase. The following applies: 5 μL; MOPS pH 7, NaCl, 1,8-ANS. It is filed as binding. From the text:
Another target molecule analyzed was human urokinase-type plasminogen activator (u-PA). U-PA enzymatically converts plasminogen into the active protease plasmin. U-PA is involved in tissue remodeling, cellular migration and metastases. The gene for u-PA was obtained from ATCC (Rockville, Md.) and modified to appropriately express active enzyme in E. coli. u-PA was cloned, overexpressed in E. coli, and purified using procedures similar to those described by Winkler et al. (Biochemistry 25:4041-4045 (1986)). […] The experiment was performed in the miniaturized format in 5 μL well volume. One μL of concentrated CMK-u-PA (13 g/L, 371.4 μM) was added to 4 μL of 62.5 mM MOPS, pH 7, 125 mM NaCl, and 250 μM 1,8-ANS, in multiple wells of a 96-well polycarbonate V-bottom microtiter plate. A thermal denaturation curve was generated as previously described for thrombin, aFGF, D(II)FGFR1, Factor D, and Factor Xa, by incremental heating of the microplate followed by a fluorescence reading after each temperature increase.

T5 sequence (P05230 whole entry, species assumed): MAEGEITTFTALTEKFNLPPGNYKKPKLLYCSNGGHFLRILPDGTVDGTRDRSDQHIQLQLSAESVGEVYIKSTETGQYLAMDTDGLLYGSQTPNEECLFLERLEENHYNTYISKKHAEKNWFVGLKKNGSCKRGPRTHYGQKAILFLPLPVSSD
T1 sequence (P00548 whole entry): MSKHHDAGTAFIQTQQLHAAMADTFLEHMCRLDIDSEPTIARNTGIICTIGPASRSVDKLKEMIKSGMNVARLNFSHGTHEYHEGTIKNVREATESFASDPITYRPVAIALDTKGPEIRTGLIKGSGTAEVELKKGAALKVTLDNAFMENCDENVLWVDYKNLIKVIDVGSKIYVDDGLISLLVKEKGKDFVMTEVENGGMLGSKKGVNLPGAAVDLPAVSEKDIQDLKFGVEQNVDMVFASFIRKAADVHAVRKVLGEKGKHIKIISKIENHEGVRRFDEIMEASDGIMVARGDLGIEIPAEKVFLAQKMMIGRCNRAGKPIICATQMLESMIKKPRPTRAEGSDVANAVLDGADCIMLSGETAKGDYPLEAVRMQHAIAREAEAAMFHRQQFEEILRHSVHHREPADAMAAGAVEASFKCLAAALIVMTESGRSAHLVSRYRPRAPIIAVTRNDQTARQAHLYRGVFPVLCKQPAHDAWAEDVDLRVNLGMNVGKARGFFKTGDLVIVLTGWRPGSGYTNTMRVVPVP

On to `CN(C)c1ccc(-c2cnc(-c3ccc(S(=O)(=O)O)cc3)o2)cc1` [5-(4″-dimethylaminophenyl)-2-(4′-phenyl)oxazole sulfonate], for which the “fluorescence signal relative to 1,8-ANS on unfolding of pyruvate kinase” value in [1] is given as “approximately 3.2 fold”. Also, on thrombin [2], the “signal relative to 1,8-ANS, average of 384 wells” value was determined as 4.25 times.
Turning to `[Cl-].[Na+]` [NaCl, sodium chloride], the ΔTm result at human α-thrombin is “about 12 °C”; in the experiment with D(II) FGF receptor 1 it was “about 5 °C”.
Turning to `[Na+]` [Na^+], at thrombin [3], the equilibrium dissociation constant (Kd) (usually the equilibrium constant for the complex coming apart) was 30000 ± 3000 µM.
`Cc1ccc(C(=O)Nc2ccc(S(=O)(=O)O)c3cc(S(=O)(=O)O)cc(S(=O)(=O)O)c23)cc1NC(=O)c1cccc(NC(=O)Nc2cccc(C(=O)Nc3cc(C(=O)Nc4ccc(S(=O)(=O)O)c5cc(S(=O)(=O)O)cc(S(=O)(=O)O)c45)ccc3C)c2)c1` [Suramin, suramin]: the values for the ΔTm in experiment [4] (relative to thrombin alone (329.15 °K)) and in [5] were 11.0 °K and 13.0 °K, respectively. For the same molecule, the “affinity at Tm higher than the affinity of heparin 5000” value in [4] (thermal shift assay, Table 4) is 5700 fold. Moreover, the Tm in experiment [4] (turbidity signal, 11 μM thrombin, ligand 40-102 μM) came out at 340.15 °K; in experiment [5], 330.15 °K.
With `O=C(NCCCNC(=O)[C@H](OS(=O)(=O)O)[C@@H](OS(=O)(=O)O)[C@H](O[C@@H]1O[C@H](COS(=O)(=O)O)[C@H](OS(=O)(=O)O)[C@H](OS(=O)(=O)O)[C@H]1OS(=O)(=O)O)[C@@H](COS(=O)(=O)O)OS(=O)(=O)O)[C@H](OS(=O)(=O)O)[C@@H](OS(=O)(=O)O)[C@H](O[C@@H]1O[C@H](COS(=O)(=O)O)[C@H](OS(=O)(=O)O)[C@H](OS(=O)(=O)O)[C@H]1OS(=O)(=O)O)[C@@H](COS(=O)(=O)O)OS(=O)(=O)O` [aprosulate], the “unfolding transition (Tm) in the presence of ligand” value on D(II) FGFR1 is reported as “about 320 K”. The “increase of the unfolding transition” value at D(II) FGFR1 (D(II) FGFR1 50 μM, 10 μL) is recorded as “about 8 K”.
In the case of EEEEEEEE, the Kd in experiment [5] (equation (1), estimated ΔHu 60.0 kcal/mole, ΔCpu 0.95 kcal/mole-°K, read-out: Kd at Tm) was 10.1 µM. The Kd in [5] (estimate by equation (3), ΔHL −10.0 kcal/mole, read-out: Kd at 298° K Observed) is 3.04 µM. Further, in experiment [5], the ΔTm stood at 5.0 °K and the Tm was determined as 322.15 °K.
For glu-gly-arg-chloromethylketone [CMK], in [6], the “Tm of the CMK-u-PA complex” value came to 81 °C.
